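GI50 = concentration required for 50% inhibition of growth. TGI: concentration producing complete growth inhibition.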
Experiments:
Assay in all cases: growth of human tumour cells (NCI), 384-well format
786-0 renal = tested on: 786-0 renal
A498 renal = tested on: A498 renal
A549 NSCLC = tested on: A549 NSCLC
ACHN renal = tested on: ACHN renal
BT-549 breast = tested on: BT-549 breast
CAKI-1 renal = tested on: CAKI-1 renal
CCRF-CEM leukemia = tested on: CCRF-CEM leukemia
COLO 205 colon = tested on: COLO 205 colon
DU-145 prostate = tested on: DU-145 prostate
EKVX NSCLC = tested on: EKVX NSCLC
HCC-2998 colon = tested on: HCC-2998 colon
HCT-116 colon = tested on: HCT-116 colon
HCT-15 colon = tested on: HCT-15 colon
HL-60(TB) leukemia = tested on: HL-60(TB) leukemia
HOP-62 NSCLC = tested on: HOP-62 NSCLC
HOP-92 NSCLC = tested on: HOP-92 NSCLC
HS 578T breast = tested on: HS 578T breast
IGROV1 ovarian = tested on: IGROV1 ovarian
K-562 leukemia = tested on: K-562 leukemia
KM12 colon = tested on: KM12 colon
LOX IMVI melanoma = tested on: LOX IMVI melanoma
M14 melanoma = tested on: M14 melanoma
MALME-3M melanoma = tested on: MALME-3M melanoma
MCF7 breast = tested on: MCF7 breast
MDA-MB-231 breast = tested on: MDA-MB-231 breast
MDA-MB-435 melanoma = tested on: MDA-MB-435 melanoma
MDA-MB-468 breast = tested on: MDA-MB-468 breast
MOLT-4 leukemia = tested on: MOLT-4 leukemia
NCI-H226 lung = tested on: NCI-H226 lung

With `COc1ccc(C(=O)CC2(O)C(=O)Nc3c(Cl)ccc(Cl)c32)cc1` (stereo not drawn) the GI50 ([…]-0 renal) was 3610 nM, the TGI (786-0 renal) was 21700 nM and the GI50 (A498 renal) was 3720 nM. For the same molecule, the TGI (A498 renal) was 46700 nM, the GI50 (A549 NSCLC) was 2100 nM and the TGI (A549 NSCLC) was > 100000 nM. The GI50 (ACHN renal) was 7900 nM, the TGI (ACHN renal) was > 100000 nM and the GI50 (BT-549 breast) was 509 nM. The TGI (BT-549 breast) was 10900 nM, the GI50 (CAKI-1 renal) was 679 nM and the TGI (CAKI-1 renal) was > 100000 nM. The GI50 (CCRF-CEM leukemia) was 656 nM, the TGI (CCRF-CEM leukemia) was 1900 nM and the GI50 (COLO 205 colon) was 646 nM. The TGI (COLO 205 colon) was > 100000 nM, the GI50 (DU-145 prostate) was 2790 nM and the TGI (DU-145 prostate) was 12100 nM. For the same molecule, the GI50 (EKVX NSCLC) was 3810 nM, the TGI (EKVX NSCLC) was 52000 nM and the GI50 (HCC-2998 colon) was 1800 nM. It also gave a TGI (HCC-2998 colon) of 36200 nM, a GI50 (HCT-116 colon) of 568 nM and a TGI (HCT-116 colon) of 32100 nM. For the same molecule, the GI50 (HCT-15 colon) was 369 nM, the TGI (HCT-15 colon) was 14400 nM and the GI50 (HL-60(TB) leukemia) was 237 nM. For the same molecule, the TGI (HL-60(TB) leukemia) was 474 nM, the GI50 (HOP-62 NSCLC) was 1260 nM and the TGI (HOP-62 NSCLC) was 47800 nM. The GI50 (HOP-92 NSCLC) was 9020 nM, the TGI (HOP-92 NSCLC) was 54500 nM and the GI50 (HS 578T breast) was 1090 nM. For the same molecule, the TGI (HS 578T breast) was 2760 nM, the GI50 (IGROV1 ovarian) was 2780 nM and the TGI (IGROV1 ovarian) was > 100000 nM. It also gave a GI50 (K-562 leukemia) of 354 nM, a TGI (K-562 leukemia) of 1650 nM and a GI50 (KM12 colon) of 467 nM. It also gave a TGI (KM12 colon) of 25600 nM, a GI50 (LOX IMVI melanoma) of 4440 nM and a TGI (LOX IMVI melanoma) of 21000 nM. The GI50 (M14 melanoma) was 529 nM, the TGI (M14 melanoma) was 2570 nM and the GI50 (MALME-3M melanoma) was 13900 nM. It also gave a TGI (MALME-3M melanoma) of 45400 nM, a GI50 (MCF7 breast) of 1070 nM and a TGI (MCF7 breast) of 21000 nM. The GI50 (MDA-MB-231 breast) was 13200 nM, the TGI (MDA-MB-231 breast) was > 100000 nM and the GI50 (MDA-MB-435 melanoma) was 207 nM. For the same molecule, the TGI (MDA-MB-435 melanoma) was 431 nM, the GI50 (MDA-MB-468 breast) was 215 nM and the TGI (MDA-MB-468 breast) was 571 nM. For the same molecule, the GI50 (MOLT-4 leukemia) was 216 nM, the TGI (MOLT-4 leukemia) was 426 nM and the GI50 (NCI-H226 lung) was 6250 nM. It also gave a TGI (NCI-H226 lung) of 50000 nM.
